In publication PMC11385044 (Chemical Science, 2024):
*1 amine or outer side, *2 acyl side, *3 side chain or, on linkers, in order; H or OH if unused. Where a SMILES comes first, the peptide text is derived from it. Bridges are numbered along the chain shown (N, C = ends). Roman numbers before positions name the chains, in order. The star is where a group is joined. FITC = O=C1OC2(c3ccc(O)cc3Oc3cc(O)ccc32)c2ccc(NC(=S)*)cc21; X1 = O=C(CCc1cn(CC(=O)[*:2])nn1)[*:1]

Molecular target: ubiquitin (Ub) (Homo sapiens, UniProt P0CG47)
Experiment: Fluorescence polarization
Format: binding
Details: comparison with native UIM-1 peptide 12

## CC[C@H](C)[C@H](NC(=O)[C@H](C)NC(=O)[C@@H](NC(=O)[C@H](CCC(=O)O)NC(=O)[C@@H](NC(=O)[C@H](CCC(=O)O)NC(=O)[C@H](CC(C)C)NC(=O)[C@H](CCC(=O)O)NC(=O)[C@H](CCC(=O)O)NC(=O)[C@@H](NC(=O)[C@H](CCC(=O)O)NC(=O)[C@H](CCC(N)=O)NC(=O)[C@H](CCC(=O)O)NC(=O)CCc1cn(CC(=O)N[C@@H](CCCCN)C(=O)N[C@@H](CCC(N)=O)C(=O)N[C@@H](CCCCN)C(=O)N[C@H](C(=O)N[C@@H](C)C(=O)N[C@@H](C)C(=O)N[C@@H](CC(C)C)C(=O)N[C@@H](CCCCN)C(=O)N[C@@H](CCCCNC(=S)Nc2ccc3c(c2)C(=O)OC32c3ccc(O)cc3Oc3cc(O)ccc32)C(=O)N[C@@H](CCCCN)C(=O)N[C@H](C(=O)N[C@@H](C)C(=O)N[C@@H](C)C(=O)N[C@@H](CC(C)C)C(=O)N[C@@H](CCCCN)C(=O)N[C@@H](CCC(N)=O)C(=O)N[C@@H](CCCCN)C(=O)N[C@H](C(=O)N[C@@H](CCC(N)=O)C(=O)NCC(N)=O)[C@@H](C)CC)[C@@H](C)CC)[C@@H](C)CC)nn1)[C@@H](C)CC)[C@@H](C)CC)[C@@H](C)CC)C(=O)N[C@@H](CC(C)C)C(=O)N[C@@H](CC(C)C)C(=O)N[C@@H](CO)C(=O)N[C@@H](CCC(=O)O)C(=O)N[C@H](C(=O)N[C@@H](CCC(=O)O)C(=O)NCC(N)=O)[C@@H](C)CC [Peptide 10] (I: EQEIEELEIEIAILLSEIEG-NH2 / II: KQKIAALKK(FITC)KIAALKQKIQG-NH2; linker I:N-II:N via X1)
  Ub binding relative to native UIM-1 peptide: binds more strongly than the native UIM-1 peptide
